Results on one compound are retold here after patent US20100159030A1, “METHODS FOR DETECTING AND MODULATING THE SENSITIVITY OF TUMOR CELLS TO ANTI-MITOTIC AGENTS AND FOR MODULATING TURMORGENICITY” (NewSouth Innovations Pty Limited, priority 2007, published 2010).

Holding throughout (type): cell-based, Human
Test [1] concerns Calu-6 cells. Put plainly: Drug-treated clonogenic assay on siRNA-transfected cells. Here is the method:
Cells were transfected for 24 h and approximately 600 cells (for Calu-6) or 150 cells (for H460) were seeded into each well of a 6-well plate and allowed to attach for 4-6 h. The cell lines used in this study were not subject to prior drug selection, and are likely to represent intrinsic drug resistance observed in lung carcinoma.
Cells were then treated with increasing concentrations of various anti-mitotic drugs. Following a 3-day incubation at 37° C., the drug-containing medium was removed and replaced with fresh complete medium. Medium was changed at 3-4 day intervals for 7 to 10 days until visible colonies formed. […] Surviving colonies were simultaneously fixed and stained with 0.5% crystal violet in methanol, rinsed with water to remove excess stain and air-dried overnight.
The colonies in each well were manually counted, and the results were presented as surviving fraction according to the formula: surviving fraction was calculated as follows: colony number/(number of cells seeded×plating efficiency), where plating efficiency is equivalent to the colony number divided by the number of cells seeded in the drug-free medium. Dose-response curves were plotted for each drug-cell line combination and inhibitory dose (ID50) values were extrapolated from this curve using GraphPad Prism program (GraphPad Software, version 4, San Diego, Calif.). ID50 was defined as the concentration of the drug required to reduce the number of colonies in drug-treated wells to 50% of that of the relevant untreated control wells. The ID50 values were the means of at least four independent experiments.
To quantitate any change in drug sensitivity, drug treated clonogenic assays were performed. Twenty-four hours after siRNA transfection, cells were harvested and plated into 6-well plates for 6 h, prior to the addition of various drugs as indicated in the figure legends. After 72 h incubation, the drug-containing media was removed and replaced with complete growth media. Medium was changed every 3 days for 7 to 10 days until visible colonies formed. Colonies were simultaneously fixed and stained with 0.5% crystal violet in methanol, and manually counted. Individual stained colonies in each well were counted and the surviving fraction was calculated as follows: colony number/(number of cells seeded×plating efficiency), where plating efficiency equals the colony number divided by the number of cells seeded in drug-free media.

Test [2] has as its system Calu-6 cells. Put plainly: Immunofluorescent staining of microtubules (α-tubulin) after drug treatment. To be noted: 1 h, vs control. Here is the method:
Transfected Calu-6 cells were grown on sterile chamber slides until 60-70% confluent. Cells were then treated with paclitaxel and vincristine for 1 h at 10 nM. Cells were fixed in methanol and processed for staining as previously described (Don et al. (2004) supra) with minor modifications. Fixed cells were stained with α-tubulin (1:400 in 5% FCS/PBS, Sigma) for 30 min followed by Cy2 anti-mouse fluorescent tagged antibody (1:1,000 in 5% FCS/PBS, GE Healthcare). Slides were mounted on a coverslip using DAPI II Counterstain (Vysis Inc., Downers Grove, Ill.). Slides were viewed using a Zeiss Axioplan 2 Immunofluorescence Microscope (Mannheim, Germany) with Image-Pro® Plus 4.1 software (Media Cybernetics, L.P., Silver Spring, Md.).
To assess the effects of βIII downregulation on microtubule organization, immunofluorescence staining was performed on transfected Calu-6 cells as follows. Briefly, siRNA transfected cells were plated in glass chamber slides and allowed to reach 70% confluence. Cells were then treated with 10 nM of paclitaxel or vincristine for 1 hour. Drug was then removed by washing cells with PBS and blocked in 10% FCS/PBS. For dual staining, cells were first labelled with an antibody to class III β-tubulin which was exposed to cells incubated at 37° C. for 30 minutes in a humidified chamber. Following washes in 0.1% Tween 20/PBS at room temperature, the slides were incubated with Cy3 anti-mouse fluorescent-tagged antibody (GE Healthcare) for 40 minutes in a humidified chamber in the dark at room temperature. Following incubation, the slides were washed again in 0.1% Tween 20/PBS. This was then followed by staining with α-tubulin and Cy2 anti-mouse fluorescent tagged antibody (GE Healthcare). Slides were mounted on a coverslip using DAPI II Counterstain (Vysis Inc., Downers Grove, Ill.). Immunofluorescence microscopy was performed and images were captured using a Sensicam Charged Coupled Device camera (PCO Imaging, Kelheim, Bavaria, Germany) and the Image-Pro® Plus 4.1 software (Media Cybernetics, L.P., Silver Spring, Md.).

The test system of test [3] is H460 cells. Put plainly: Cell cycle analysis by flow cytometry (propidium iodide). To be noted: 24 h. Here is the method: The distribution of DNA content in βII or βIVb tubulin siRNA-transfected H460 cells was determined by flow cytometry. After 72 h transfection, transfected cells were exposed to vincristine at 5 nM or 40 nM concentrations for 24 h. On the day of analysis, both adherent and floating cells were harvested, washed with PBS and then stained with a solution containing 0.4% Triton® X-100 (Sigma), 50 μg/ml propidium iodide (Sigma), and 2 μg/ml DNase-free RNase (Roche, Indianapolis, Ind.) in the dark for 15 min at 37′C. DNA content was measured by a FACSCalibur flow cytometer (Becton Dickinson, San Diego, Calif.). The flow rate was <200 nuclei per second and 10,000 cells from each sample were analysed. Measurements were performed under the same instrumental settings. The CellQuest® program was used to quantitate the distribution of cells in each cell cycle phase: sub-G1 (apoptotic cells), G1, S and G2/M.
To determine whether βIII-tubulin silencing affects the cell cycle profiles, cell cycle analysis using flow cytometry was performed. Cell cycle analysis was determined by transfecting H460 cells with siRNA for 72 h and harvesting (adherent and suspension) cells 24 h after drug treatment. DNA content was stained for 15 min at 37° C. with a solution containing 0.4% Triton® X-100 (Sigma-Aldrich), 50 μg/ml propidium iodide (Sigma-Aldrich), and 2 μg/ml DNAse-free RNAse (Roche, Indianapolis, Ind.). The cells were then analyzed for cell cycle perturbation using a FACSCalibur (Becton-Dickinson, Franklin Lakes, N.J.). The CellQuest® program was used to quantitate the distribution of cells in each cell cycle phase: sub-G1(apoptotic cells), G1, S and G2/M.

Test [4] has as its system H460 cells. Put plainly: Apoptosis induction, Annexin V-FITC flow cytometry. The note with it: 48 h. Here is the method: Annexin V-FITC staining followed by flow cytometry analysis was performed to address whether the increase in the sub-G1 population following exposure to tubulin-binding agents in the βIII-tubulin siRNA treated cells was related to an increase in apoptosis induction. Apoptosis induction was determined by transfecting H460 cells with siRNA for 72 h and harvesting (adherent and suspension) cells 48 h after drug treatment, as previously described in Pasquier et al., Mol Cancer Ther 2004; 3:1301-10. Briefly, 1×10^5 cells were incubated with Annexin V-FITC and propidium iodide for 15 min in the dark (Becton-Dickinson), immediately followed by flow cytometry using a FACSCalibur (Becton-Dickinson). Cytogram analysis was performed using CellQuest® software.

In the case of `CC(=O)O[C@H]1C(=O)[C@@]2(C)[C@H]([C@H](OC(=O)c3ccccc3)[C@]3(O)C[C@H](OC(=O)[C@H](O)[C@@H](NC(=O)c4ccccc4)c4ccccc4)C(C)=C1C3(C)C)[C@]1(OC(C)=O)CO[C@@H]1C[C@@H]2O` [Paclitaxel, paclitaxel], the “change in drug sensitivity (clonogenic survival)” value is given as “did not significantly potentiate the cytotoxicity” with Calu-6 cells [1] (class II β-tubulin siRNA knockdown vs controls) and “no effect on sensitivity” with Calu-6 cells [1] (class IVb β-tubulin siRNA knockdown vs controls). Also, the microtubule morphology result with Calu-6 cells [2] (βII siRNA-transfected Calu-6, 10 nM drug) is reported as “did not appear significantly different”; with Calu-6 cells [2] (βIII siRNA-transfected Calu-6, 10 nM drug) it was “extensive disruption of the microtubule cytoskeleton”. Besides, the cell cycle profile entry with H460 cells [3] (control siRNA cells, 40 nM) is “marked G2/M block”; with H460 cells [3] (βIII-tubulin siRNA cells vs control siRNA, 5 nM) it was “higher sub-G1 (apoptotic cells) content”; in the test on H460 cells [3] (βIII-tubulin siRNA cells, 40 nM), “marked increase in the sub-G1 population”. Further, the “concentration from which apoptosis is induced” value is at least 5 nM in the test with H460 cells [4] (control siRNA treated cells) and at least 1 nM in the test with H460 cells [4] (βIII-tubulin siRNA treated cells). The “percentage of apoptotic cells” value in the test with H460 cells [4] (βIII-tubulin siRNA vs control siRNA cells, paclitaxel 1, 2, 5 nM, cisplatin 0.4 or 1 μM) is given as “significantly higher”.
